Key:
[1] = system: mice; assay: Elevated plus-maze test of anxiolytic effect; type: in vivo, mouse; settings: for Minimum Effective Dose (anxiolytic effect): IP
Method: In the present invention, the anxiolytic effects can be evaluated by the elevated plus-maze test, which has been developed as a method for evaluating anxiety-related behaviors to screen anxiolytic drugs and has been widely used (FIG. 1). Specifically, the test is performed as follows: a candidate substance for an anxiolytic drug is orally or intraperitoneally administered to a mouse, the mouse is placed in an elevated plus-maze 30 minutes after the administration, and the potency of the anxiolytic effect is evaluated based on the number of entries into the open arms and the change in the time spent on the open arms.
The elevated plus-maze includes two open arms (25×5 cm) and two closed arms (25×5×15 cm), which were joined to a central platform 50 cm high above the floor (see FIG. 1). Because the closed arms were surrounded by barriers, a mouse could safely walk in the closed arms in spite of the elevated position. On the other hand, because the open arms were not surrounded by barriers, a mouse walking along the open arms would feel anxious that it might fall from the elevated position. Therefore, the more time the mouse spent in the open arms, or the greater the number of entries into the open arms, the less anxious the mouse would feel. Thus, the anxiolytic activity is determined based on these indices.
A mouse was placed on a portion of the central platform facing one of the open arms, and the test was started. During the 5-minute test time, the cumulative time spent in the open arms (abbr.: time in open arms), the number of visits to the open arms (abbr.: visits to open arms), and the total number of visits to the either arms (abbr.: total visits) were recorded. The percentage of the time spent in the open arms and the percentage of the number of visits to the open arms were calculated as indices of anxiety.
The data obtained from the elevated plus-maze test were represented as the mean values±SEM. The data were analyzed by one-way ANOVA, followed by the Fisher test for multiple comparisons.
Each of VYLPR (SEQ ID NO:1) (Example 1), YLPR (SEQ ID NO:2) (Example 2), and LPR (SEQ ID NO:3) (Example 3) dissolved in physiological saline was administered intraperitoneally (IP) or orally (PO) to mice (n=3 to 14) in the amount shown in each figure before the mice were placed on the central portion of the elevated plus-maze. The percentage of the time spent in the open arms, the percentage of the number of visits to the open arms, and the total number of visits to the both arms (total visits) were compared between groups administered each peptide and the control group (0 mg/kg). The results are shown in FIGS. 2 to 5, FIGS. 7 and 8, and Table 1.
Trypsin-digested ovalbumin was used as an active ingredient and was administered intraperitoneally and orally to test the anxiolytic effects using the open arms in the same manner as in Examples 1 to 3.
An aqueous solution of ovalbumin (20 mg/ml) was heated (10-min boiling), and bovine trypsin (E:S=1:100) was added to carry out a reaction at 37° C. for 5 hours. As a result, VYLPR (SEQ ID NO:1) was produced at a high efficiency of 44 mol %. When the aqueous solution of ovalbumin was not pre-heated, VYLPR (SEQ ID NO:1) was below the detection limit and was hardly produced even with the trypsin treatment. TPCK-treated Trypsin from bovine pancreas (Sigma) was used as the bovine trypsin. […]

[2] = system: mice; assay: Elevated plus-maze test with peptide given in combination with an inhibitor or receptor antagonist; type: in vivo, mouse
Method: An anxiolytic peptide of the invention was administered in combination with the inhibitor or one of the antagonists for various receptors as follows, and tests were conducted in the same manner as in Example 1 in order to identify the effect of each antagonist on the anxiolytic activity of the peptide of the present invention, i.e., to identify the receptors on which the peptide of the invention acts.
COX inhibitor: Indomethacin, 10 mg/kg
DP1-R antagonist: BWA868C, 60 μg/kg

Row | Substance | Minimum Effective Dose (anxiolytic effect) [1] [mg/kg] | anxiolytic effect ([1]; intraperitoneal administration) | anxiolytic effect ([1]; oral administration) | anxiolytic effect in the presence of prostaglandin DP1 receptor antagonist ([2]; BWA868C 60 μg/kg, FIG. 10A) | anxiolytic effect in the presence of adenosine A2A receptor antagonist ([2]; SCH58261 0.1 mg/kg, FIG. 10B)
1 | Leu-Pro-Arg [LPR] | 0.3 |  |  |  | 
2 | Tyr-Leu-Pro-Arg (YLPR; Designed peptide) | 0.3 |  |  |  | 
3 | Undigested ovalbumin: Undigested ovalbumin (with and without heat treatment) used as the control for the trypsin digest [reference compound] |  | did not show anxiolytic effects | did not show anxiolytic effects |  | 
4 | Val-Tyr-Leu-Pro-Arg (VYLPR; Designed peptide) | 0.3 |  |  | inhibited | inhibited

From patent US8946164B2, “Bioactive peptide” (Kyoto University, priority 2010, dated 2015)
